Results published in US20250320227A1, “MACROCYCLIC OREXIN RECEPTOR AGONISTS AND USES THEREOF” (Jazz Pharmaceuticals Ireland Limited, priority 2022, published 2025).
pEC50: −log10 of the molar value.

molecular target: T1, human recombinant OX2 (hOX2) receptors expressed in CHO cells (Homo sapiens, UniProt O43614); assay: IP-1 accumulation assay (IP-One HTRF) in hOX2-CHO cells; type: cell-based; conditions: 60 min incubation at 37° C., mean of at least two independent experiments, read-out: EC50_OX2R Category
T1 construct: host or cells: CHO cells (hOX2-CHO)
T1 sequence (O43614 1-444): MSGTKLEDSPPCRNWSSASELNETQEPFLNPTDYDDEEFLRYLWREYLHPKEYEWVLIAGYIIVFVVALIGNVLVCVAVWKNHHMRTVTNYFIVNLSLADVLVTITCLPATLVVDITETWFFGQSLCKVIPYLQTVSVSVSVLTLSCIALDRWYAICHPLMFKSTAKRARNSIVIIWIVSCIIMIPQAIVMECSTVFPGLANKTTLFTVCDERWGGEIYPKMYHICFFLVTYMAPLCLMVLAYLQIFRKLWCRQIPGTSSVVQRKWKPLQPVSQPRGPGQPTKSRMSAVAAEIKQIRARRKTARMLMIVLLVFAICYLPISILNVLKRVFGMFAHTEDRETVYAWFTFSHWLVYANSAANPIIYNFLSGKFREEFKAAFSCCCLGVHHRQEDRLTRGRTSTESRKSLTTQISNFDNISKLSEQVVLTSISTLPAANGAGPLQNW
Description: The accumulation of Inositol-1 Monophosphate (IP-1) was measured using IP-One HTRF® Terbium cryptate based assay (Cisbio) in human recombinant OX1 (hOX1) and at OX2 (hOX2) receptors expressed in CHO cells (DiscoverX) according to the manufacturer's instructions for cells tested in suspension.
hOX1-CHO and hOX2-CHO cells were seeded into white 384-well plates at a density of 20,000 cells/well in Hank's Balanced Salt Solution (HBSS) containing 20 mM HEPES pH 7.4, 50 mM, LiCl and 0.1% and Bovine Serum Albumin (BSA).
Compounds of disclosure were tested in an 11 points concentration response curve (CRC) serially diluted in neat DMSO at 200 fold concentrations and added by Echo acoustic liquid handling (Labcyte) to the cells (0.5% DMSO final in the assay). After 60 min of incubation at 37° C. detection reagents, IP1-d2 tracer and anti-IP1-cryptate were diluted in lysis buffer according to the manufacturer's descriptions and added to the cells.
Following 60 min incubation at room temperature, time-resolved fluorescence (HTRF) was measured at 615 nm and 665 nm by Envision Multilabel reader (Perkin Elmer) and the HTRF ratio (A665/A615×10^4) was calculated.
The IP-1 accumulation response was expressed as percentage of the maximal OX-A response.
Curve fitting and EC50 estimations were carried out using a four-parameter logistic model using XLfit Software. Mean data of EC50 are calculated from at least two independent experiments performed in duplicates

First: O=C1COC[C@]2(CCN3C(=O)C4(CC4)COc4cccc(F)c4[C@H]4CC[C@H](CC4)OC[C@@H]32)N1 (single isomer, unassigned) [Example 73a, (1′s,15′R,16′S,19′s)-3′-fluorodispiro [cyclopropane-1,10′-[8,18]dioxa-[12]azatetracyclo[17. 2.2.0^2,^7.0^12,^16]tricosane-15′,3″- morpholine]-2′,4′,6′-triene-5″,11′-dione]
Second: O=C1COC[C@]2(CCN3C(=O)CCOc4cccc(F)c4[C@H]4CC[C@H](CC4)OC[C@@H]32)N1 (single isomer, unassigned) [Example 10b]
The pEC50 of the first is higher: 5.00 to 6.00 for the first, < 5.00 for the second.

First: C[C@@H]1C[C@@]2(COCC(=O)N2)[C@@H]2CO[C@H]3CC[C@H](CC3)c3cccc(Cl)c3OCC(=O)N12 (single isomer, unassigned) [Example 20a]
Second: C[C@@H]1C[C@@]2(COCC(=O)N2)[C@@H]2CO[C@H]3CC[C@H](CC3)c3cccc(F)c3OCC(=O)N12 (single isomer, unassigned) [Example 15a]
The pEC50 of the first is lower: 5.00 to 6.00 for the first, > 7.00 for the second. The second is the more potent here.

`O=C1COC[C@@]2(CCCN3C(=O)CCOc4ccc(F)cc4[C@H]4CC[C@H](CC4)OC[C@H]32)N1` (single isomer, unassigned) [Example 49a] and `O=C1COCC2(CCCN3C(=O)CCOc4ccc(F)cc4[C@H]4CC[C@H](CC4)OCC32)N1` (mixture of isomers) [Example 49, Rel-(1′s,3S,17′R,20′s)-4′-fluoro-8′,19′-dioxa-12′-azaspiro[morpholine-3,16′-tetracyclo[18.2.2. 0^2,^7.0^12,^17]tetracosane]-2′(7′),3′,5′-triene-5,11′-dione] cannot be ordered by pEC50: > 7.00 for the first, > 7.00 for the second.

`Cc1ccc2c(c1)[C@H]1CC[C@H](CC1)OC[C@@H]1N(C(=O)CO2)[C@H](C)C[C@@]12COCC(=O)N2` (single isomer, unassigned) [Example 22a] and `C[C@@H]1C[C@@]2(COCC(=O)N2)[C@@H]2CO[C@H]3CC[C@H](CC3)c3cc(F)ccc3OCC(=O)N12` (single isomer, unassigned) [Example 18a] cannot be ordered by pEC50: > 7.00 for the first, > 7.00 for the second.

`O=C1COC[C@@]2(CCCN3C(=O)CCCCOc4cccc(n4)[C@H]4CC[C@H](CC4)OC[C@H]32)N1` (single isomer, unassigned) [Example 76b] and `O=C1COCC2(CCCN3C(=O)CCCCOc4cccc(n4)[C@H]4CC[C@H](CC4)OCC32)N1` (mixture of isomers) [Example 76, (1′s,21′s)-7′,20′-dioxa-13′,26′-diazaspiro[morpholine-3,17′-tetracyclo[19.2.2.1^2,60.0^13,18]hexacosane]-2′,4′,6′(26′)-triene-5,12′-dione] cannot be ordered by pEC50: > 7.00 for the first, > 7.00 for the second.

`O=C1COC[C@@]2(CCCN3C(=O)COc4c(F)ccc(F)c4[C@H]4CC[C@H](CC4)OC[C@H]32)N1` (single isomer, unassigned) [Example 44a] and `O=C1COC[C@@]2(CCCN3C(=O)COc4c(F)cccc4[C@H]4CC[C@H](CC4)OC[C@H]32)N1` (single isomer, unassigned) [Example 38a] cannot be ordered by pEC50: > 7.00 for the first, > 7.00 for the second.

First: C[C@@H]1C[C@]2(COCC(=O)N2)[C@H]2CO[C@H]3CC[C@H](CC3)c3ccccc3OCC(=O)N12 [Example 12b, (1′s,3R,12′R,15′S, 18′s)-12′-methyl-8′,17′-dioxa-11′-azaspiro[morpholine-3,14′-tetracyclo[16.2.2.0^2,70.0^11,15]docosane]-2′(7′),3′,5′-triene-5,10′-dione]
Second: C[C@@H]1C[C@@]2(COCC(=O)N2)[C@@H]2CO[C@H]3CC[C@H](CC3)c3ccccc3OCC(=O)N12 [Example 12a, (1′s,3S,12′R,15′R,18′s)-12′-methyl-8′,17′-dioxa-11′-azaspiro[morpholine-3,14′-tetracyclo[16.2.2.0^2,70.0^11,15]docosane]-2′(7′),3′,5′-triene-5,10′-dione]
The pEC50 of the first is lower: 6.00 to 7.00 for the first, > 7.00 for the second. The second is the more potent here.

Compared with `C[C@@H]1C[C@@]2(COCC(=O)N2)[C@@H]2CO[C@H]3CC[C@H](CC3)c3cc(F)cc(F)c3OCCC(=O)N12` [Example 25a, (1′s,3S,13′R,16′R, 19′s)-4′,6′-difluoro-13′-methyl-8′,18′-dioxa-12′-azaspiro[morpholine-3,15′-tetracyclo[17.2.2. 0^2,^7.0^12,^16]tricosane]-2′,4′,6′-triene-5,11′-dione], `C[C@@H]1C[C@]2(COCC(=O)N2)[C@H]2CO[C@H]3CC[C@H](CC3)c3cc(F)cc(F)c3OCC(=O)N12` (single isomer, unassigned) [Example 16b] is lower in pEC50: > 7.00 for the first, < 5.00 for the second.

Compared with `O=C1COCC2(CCCN3C(=O)CCCOc4ccccc4-c4cccc(c4F)CC32)N1` (racemic) [Example 61, Rel-(3S,18′S)-24′-fluoro-8′-oxa-13′-azaspiro[morpholine-3,17′-tetracyclo[18.3.1.0^2,70.0^13,18]tetracosane]-1′(24′),2′(7′), 3′,5′,20′,22′-hexaene-5,12′-dione], `O=C1COCC2(CCCN3C(=O)CCOc4ccccc4[C@H]4CC[C@H](CC4)OCC32)N1` (stereo partly drawn) [Example 33, Rel-(1′s,3S,17′R,20's)-8′,19′-dioxa-12′-azaspiro[morpholine-3,16′-tetracyclo-[18.2.2.0^2,70.0^12,17]tetracosane]-2′(7′),3′,5′-triene-5,11′-dione] is higher in pEC50: 5.00 to 6.00 for the first, > 7.00 for the second.

`O=C1NC2(CCN3C(=O)CCOc4ccccc4[C@H]4CC[C@H](CC4)OCC32)COC1F` (relative stereo) [Example 8, rel-(1′s,3S,16′R,19′s)-6-fluoro-8′,18′-dioxa-12′-azaspiro[morpholine-3,15′-tetracyclo[17.2.2.0^2,70.0^12,16]tricosane]-2′(7′),3′,5′-triene-5,11′-dione] and `O=C1COC[C@@]2(CCN3C(=O)CCOc4ccccc4[C@H]4CC[C@H](CC4)OC[C@H]32)N1` (single isomer, unassigned) [Example 1a] cannot be ordered by pEC50: > 7.00 for the first, > 7.00 for the second.

`O=C1COC[C@@]2(CCCN3C(=O)CCOc4c(F)cccc4[C@H]4CC[C@H](CC4)OC[C@H]32)N1` (single isomer, unassigned) [Example 48a] and `O=C1COCC2(CCCN3C(=O)COc4ccc(F)cc4[C@H]4CC[C@H](CC4)OCC32)N1` (stereo partly drawn) [Example 41, Rel-(1′s,3S,16′R,19′s)-4′-fluoro-8′,18′-dioxa-11′-azaspiro[morpholine-3,15′-tetracyclo[17.2.2. 0^2,^7.0^11,^16]tricosane]-2′(7′),3′,5′-triene-5,10′-dione] cannot be ordered by pEC50: > 7.00 for the first, > 7.00 for the second.

First: C[C@@H]1C[C@]2(COCC(=O)N2)[C@H]2CO[C@H]3CC[C@H](CC3)c3cccc(F)c3OCC(=O)N12 (single isomer, unassigned) [Example 15b]
Second: C[C@@H]1C[C@]2(COCC(=O)N2)[C@H]2CO[C@H]3CC[C@H](CC3)c3cc(F)ccc3OCC(=O)N12 (single isomer, unassigned) [Example 18b]
The pEC50 of the first is higher: 5.00 to 6.00 for the first, < 5.00 for the second. The first is the more potent here.

First: C[C@@H]1COc2ccccc2[C@H]2CC[C@H](CC2)OC[C@H]2N(CC[C@]23COCC(=O)N3)C1=O (single isomer, unassigned) [Example 5a]
Second: O=C1COCC2(CCCN3C(=O)COc4ccccc4[C@H]4CC[C@H](CC4)OCC32)N1 (stereo partly drawn) [Example 32, Rel-(1′s,3S,16′R,19′s)-8′,18′-dioxa-11′-azaspiro[morpholine-3, 15′-tetracyclo-[17.2.2.0^2,70.0^11,16]tricosane]-2′(7′),3′,5′-triene-5,10′-dione]
The pEC50 of the first is lower: < 5.00 for the first, > 7.00 for the second. The second is the more potent here.

First: O=C1COc2ccccc2[C@H]2CC[C@H](CC2)OCC2N1CCCC21COC(C(F)(F)F)N1 (mixture of isomers) [Example 70, Rel-(1′s,3S,16′R,19′s)-5-(trifluoromethyl)-8′,18′-dioxa-11′-azaspiro[1,4-oxazolidine-3,15′-tetracyclo[17.2.2.0^2,70.0^11,16]tricosane]-2′(7′),3′,5′-trien-10′-one]
Second: Cc1cccc2c1[C@H]1CC[C@H](CC1)OC[C@@H]1N(CCC[C@@]13COCC(=O)N3)C(=O)CO2 (single isomer, unassigned) [Example 47a]
The pEC50 of the first is lower: 6.00 to 7.00 for the first, > 7.00 for the second.

Compared with `O=C1COC[C@@]2(CCCN3C(=O)COc4c(F)cc(F)cc4[C@H]4CC[C@H](CC4)OC[C@H]32)N1` (single isomer, unassigned) [Example 39a], `O=C1COC[C@]2(CCCN3C(=O)COc4c(F)cc(F)cc4[C@H]4CC[C@H](CC4)OC[C@@H]32)N1` (single isomer, unassigned) [Example 39b] is higher in pEC50: < 5.00 for the first, > 7.00 for the second. The second is the more potent here.

Compared with `C[C@@H]1C[C@]2(COCC(=O)N2)[C@H]2CO[C@H]3CC[C@H](CC3)c3ccccc3OCCC(=O)N12` (single isomer, unassigned) [Example 13b], `O=C1COC[C@]2(CCCN3C(=O)OCCOc4cccc(c4)[C@H]4CC[C@H](CC4)OC[C@@H]32)N1` (single isomer, unassigned) [Example 53b] is lower in pEC50: 6.00 to 7.00 for the first, < 5.00 for the second. The first is the more potent here.
